Experiments:
[1] = Half life of compound for dissociation in DETA and NO; format: ADME
[2] = system: Ovis aries; assay: Pulmonary arterial pressure (PAP) in sheep on i.v. administration of 24 nM/ kg min; format: functional, Artery
[3] = system: Ovis aries; assay: Intravenous dose of compound that lowered systemic arterial pressure following in ovine pulmonary hypertension model; format: functional, Artery
[4] = system: Ovis aries; assay: Intravenous dose that lowered pulmonary arterial pressure withouteffect on systemic hemodynamics in sheep with drug-induced pulmonary hypertension; format: functional, Artery
[5] = Rate constant of compound for dissociation in proline and NO; format: ADME
[6] = Half life of compound for dissociation in proline and NO; format: ADME
[7] = system: Ovis aries; assay: Intravenous dose of compound that lowered pulmonary arterial pressure (PAP) in ovine pulmonary hypertension model; Range is 0.8-13 nM/kg min; format: functional, organism-based; conditions: Artery
[8] = system: Ovis aries; assay: Intravenous dose of compound that lowered systemic arterial pressure (SAP) in ovine pulmonary hypertension model; Range is 0.8-13 nM/kg min; format: functional, organism-based; conditions: Artery

NCCN(CCN)/[N+]([O-])=N/O
half-life [1]: 20 h

O=C([O-])[C@H]1CCCN1/[N+]([O-])=N/[O-].[Na+].[Na+]
PAP [2]: 9 mmHg
Dose [3]: 48 nM/min/kg
Dose [4]: 24 nM/min/kg
Rate constant [5]: 0.39 s⁻¹
T1/2 [6]: 1.8 s

SODIUM NITROPRUSSIDE
Dose (nM min-1 kg-1) [7]: 13
Dose (nM min-1 kg-1) [8]: 13
